Assay [1] concerns Cabbage Looper (Trichoplusia ni) ("CL"), second instar larvae. Briefly: Bioassay on cabbage looper (CL), 128-well diet tray assay. In kind it is in vivo. The note with it: for CL rating: Table ABC, species CL, C = not tested, D = no activity noticed; for pest or weed control at 50 µg/cm2: Trichoplusia ni, read-out: CL rating. In a few lines:
(§1)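 Second-instar larvae on diet in 128-well trays, covered and held at 25° C, 14:10 light-dark, for five to seven days. Percent mortality scored per well and averaged over eight wells; activity reported as a rating category.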

The subject of assay [2] is Beet Armyworm (Spodoptera exigua) ("BAW"), second instar larvae. Briefly: Bioassay on beet armyworm (BAW), 128-well diet tray assay. Type of assay: in vivo. The note with it: for BAW rating: Table ABC, species BAW, C = not tested, D = no activity noticed; for pest or weed control at 50 µg/cm2: Spodoptera exigua, read-out: BAW rating. In outline: as §1

Molecules are shown by their SMILES.

As to `Cc1ccc(COCC(F)(F)Cl)c(N2C(=O)CS/C2=N\C(=O)Nc2ccc(-c3ncn(-c4ccc(OC(F)(F)F)cc4)n3)cc2C)c1` [Compound J436], in assay [1], the CL rating entry was “A (50-100)”. Further, the BAW rating entry in assay [2] is “A (50-100)”.

Take `Cc1ccc(COCC(F)(F)Cl)c(N2C(=O)CS/C2=N\C(=O)Nc2ccc(-c3ncn(-c4ccc(OC(F)(F)F)cc4)n3)cc2F)c1` [Compound J437]: in assay [1], the CL rating result is “A (50-100)”. For the same molecule, in assay [2], the BAW rating result is given as “A (50-100)”.

As to `Cc1ccc(N2C(=O)CS/C2=N\C(=O)Nc2ccc(-c3ncn(-c4ccc(OC(F)(F)F)cc4)n3)cc2F)c(COCC(F)(F)F)c1` [Compound J438], the CL rating result in assay [1] is “A (50-100)”. Moreover, the BAW rating entry in assay [2] was “A (50-100)”.

For `Cc1ccc(Cc2cccc(C(F)(F)F)c2)c(N2C(=O)CS/C2=N\C(=O)Nc2ccc(-c3ncn(-c4ccc(OC(F)(F)F)cc4)n3)cc2C)c1` [Compound J440, (Z)-1-(3-(5-Methyl-2-(3-(trifluoromethyl)benzyl)phenyl)-4-oxothiazolidin-2-ylidene)-3-(2-methyl-4-(1-(4-(trifluoromethoxy)phenyl)-1H-1,2,4-triazol-3-yl)phenyl)urea], the pest or weed control at 50 µg/cm2 in assay [1] lay in the range of 0 to 50%; in assay [2], 50 to 100%.

On to `Cc1ccc(OCCC(F)(F)F)c(N2C(=O)CS/C2=N\C(=O)Nc2ccc(-n3cnc(-c4ccc(OC(F)(F)F)cc4)n3)cc2C)c1` [Compound J441, (Z)-1-(3-(5-Methyl-2-(3,3,3-trifluoropropoxy)phenyl)-4-oxothiazolidin-2-ylidene)-3-(2-methyl-4-(3-(4-(trifluoromethoxy)phenyl)-1H-1,2,4-triazol-1-yl)phenyl)urea], for which the pest or weed control at 50 µg/cm2 in assay [1] and in assay [2] was 50 to 100% each time.

`Cc1ccc(COCC(F)(F)F)c(N2C(=O)CS/C2=N\C(=O)Nc2ccc(-n3cnc(-c4ccc(OC(F)(F)F)cc4)n3)cc2C)c1` [Compound J442, (Z)-1-(3-(5-Methyl-2-((2,2,2-trifluoroethoxy)methyl)phenyl)-4-oxothiazolidin-2-ylidene)-3-(2-methyl-4-(3-(4-(trifluoromethoxy)phenyl)-1H-1,2,4-triazol-1-yl)phenyl)urea]: the pest or weed control at 50 µg/cm2 in assay [1] and in assay [2] was 50 to 100% each time.

Take `COC(c1ccc(C)cc1N1C(=O)CS/C1=N\C(=O)Nc1ccc(-n2cnc(-c3ccc(OC(F)(F)F)cc3)n2)cc1C)C(F)(F)F` (centres unmarked) [Compound J443, (Z)-1-(3-(5-Methyl-2-(2,2,2-trifluoro-1-methoxyethyl)phenyl)-4-oxothiazolidin-2-ylidene)-3-(2-methyl-4-(3-(4-(trifluoromethoxy)phenyl)-1H-1,2,4-triazol-1-yl)phenyl)urea]: the pest or weed control at 50 µg/cm2 in assay [1] and in assay [2] was 50 to 100% in each case.

Turning to `COCc1ccc(N(C)C)cc1N1C(=O)CS/C1=N\C(=O)Nc1ccc(-n2cnc(-c3ccc(OC(F)(F)F)cc3)n2)cc1C` [Compound J444, (Z)-1-(3-(5-(Dimethylamino)-2-(methoxymethyl)phenyl)-4-oxothiazolidin-2-ylidene)-3-(2-methyl-4-(3-(4-(trifluoromethoxy)phenyl)-1H-1,2,4-triazol-1-yl)phenyl)urea], the pest or weed control at 50 µg/cm2 in assay [1] and in assay [2] was 50 to 100% in each case.

For the molecule `CCOCc1ccc(C)cc1N1C(=O)CS/C1=N\C(=O)Nc1ccc(-c2ncn(-c3ccc(S(F)(F)(F)(F)F)cc3)n2)cc1F` [Compound J445], the CL rating entry in assay [1] was “A (50-100)”. Also, the BAW rating entry in assay [2] is listed as “A (50-100)”.

As for `Cc1ccc(COCC(F)F)c(N2C(=O)CS/C2=N\C(=O)Nc2ccc(-c3ncn(-c4ccc(S(F)(F)(F)(F)F)cc4)n3)cc2F)c1` [Compound J446], the pest or weed control at 50 µg/cm2 in assay [1] and in assay [2] was 50 to 100% in each case.

With `Cc1ccc(OCCC(F)(F)F)c(N2C(=O)CS/C2=N\C(=O)Nc2ccc(-c3ncn(-c4ccc(S(F)(F)(F)(F)F)cc4)n3)cc2F)c1` [Compound J447], the pest or weed control at 50 µg/cm2 in assay [1] and in assay [2] was 50 to 100% throughout.

Take `Cc1ccc(N2C(=O)CS/C2=N\C(=O)Nc2ccc(-c3ncn(-c4ccc(OC(F)(F)F)cc4)n3)cc2C)c(COCC(F)(F)F)c1` [Compound J448]: the CL rating result in assay [1] is recorded as “A (50-100)”. Besides, the BAW rating entry in assay [2] is on record as “A (50-100)”.

On to `Cc1ccc(COCC(F)(F)Cl)c(N2C(=O)CS/C2=N\C(=O)Nc2ccc(-c3ncn(-c4ccc(S(F)(F)(F)(F)F)cc4)n3)cc2F)c1` [Compound J449], for which the CL rating entry in assay [1] is listed as “A (50-100)”. Also, the BAW rating entry in assay [2] is given as “A (50-100)”.

On to `CC(C)c1ccc(N(C)C)cc1N1C(=O)CS/C1=N\C(=O)Nc1ccc(-c2ncn(-c3ccc(S(F)(F)(F)(F)F)cc3)n2)cc1F` [Compound J450], for which the CL rating entry in assay [1] was “A (50-100)”. For the same molecule, the BAW rating entry in assay [2] is given as “A (50-100)”.

For `Cc1ccc(N2C(=O)CS/C2=N\C(=O)Nc2ccc(-c3ncn(-c4ccc(C(F)(F)F)cn4)n3)cc2F)c(COCC(F)(F)F)c1` [Compound J451], in assay [1], the CL rating result is recorded as “A (50-100)”. The BAW rating result in assay [2] is recorded as “A (50-100)”.

As to `Cc1ccc(COCC(Cl)(Cl)Cl)c(N2C(=O)CS/C2=N\C(=O)Nc2ccc(-c3ncn(-c4ccc(OC(F)(F)F)cc4)n3)cc2F)c1` [Compound J452], in assay [1], the CL rating entry is on record as “A (50-100)”. The BAW rating entry in assay [2] is “A (50-100)”.

Take `Cc1ccc(COCC(Cl)(Cl)Cl)c(N2C(=O)CS/C2=N\C(=O)Nc2ccc(-c3ncn(-c4ccc(S(F)(F)(F)(F)F)cc4)n3)cc2F)c1` [Compound J453]: the CL rating result in assay [1] is listed as “A (50-100)”. Besides, the BAW rating result in assay [2] is “A (50-100)”.

For the molecule `CCCc1ccc(C)cc1N1C(=O)CS/C1=N\C(=O)Nc1ccc(-c2ncn(-c3ccc(C(F)(F)F)cn3)n2)cc1F` [Compound J454], in assay [1], the CL rating entry is reported as “A (50-100)”. The BAW rating result in assay [2] is listed as “A (50-100)”.

Turning to `Cc1cc(COCC(F)(F)F)c(N2C(=O)CS/C2=N\C(=O)Nc2ccc(-c3ncn(-c4ccc(OC(F)(F)F)cc4)n3)cc2F)cc1C` [Compound J455], the CL rating entry in assay [1] is on record as “A (50-100)”. Also, the BAW rating entry in assay [2] is recorded as “A (50-100)”.

`Cc1ccc(Cc2ccccc2)c(N2C(=O)CS/C2=N\C(=O)Nc2ccc(-c3ncn(-c4ccc(OC(F)(F)F)cc4)n3)cc2C)c1` [Compound J456, (Z)-1-(3-(2-Benzyl-5-methylphenyl)-4-oxothiazolidin-2-ylidene)-3-(2-methyl-4-(1-(4-(trifluoromethoxy)phenyl)-1H-1,2,4-triazol-3-yl)phenyl)urea]: the pest or weed control at 50 µg/cm2 in assay [1] and in assay [2] was 50 to 100% throughout.

Consider `Cc1ccc(Cc2ccccc2)c(N2C(=O)CS/C2=N\C(=O)Nc2ccc(-c3ncn(-c4ccc(OC(F)(F)F)cc4)n3)cc2F)c1` [Compound J457, (Z)-1-(3-(2-Benzyl-5-methylphenyl)-4-oxothiazolidin-2-ylidene)-3-(2-fluoro-4-(1-(4-(trifluoromethoxy)phenyl)-1H-1,2,4-triazol-3-yl)phenyl)urea], for which the pest or weed control at 50 µg/cm2 in assay [1] and in assay [2] was 50 to 100% throughout.

On to `Cc1ccc(COCC(F)(F)F)c(N2C(=O)C(Cl)(Cl)S/C2=N\C(=O)Nc2ccc(-c3ncn(-c4ccc(OC(F)(F)F)cc4)n3)cc2F)c1` [Compound J458, (Z)-1-(5,5-dichloro-3-(5-methyl-2-((2,2,2-trifluoroethoxy)methyl)phenyl)-4-oxothiazolidin-2-ylidene)-3-(2-fluoro-4-(1-(4-(trifluoromethoxy)phenyl)-1H-1,2,4-triazol-3-yl)phenyl)urea], for which the pest or weed control at 50 µg/cm2 in assay [1] and in assay [2] was 50 to 100% throughout.

Turning to `Cc1ccc(COCC(Cl)(Cl)Cl)c(N2C(=O)CS/C2=N\C(=O)Nc2ccc(-c3ncn(-c4ccc(OC(F)(F)F)cc4)n3)cc2C)c1` [Compound J459], the CL rating entry in assay [1] is recorded as “A (50-100)”. For the same molecule, in assay [2], the BAW rating result is “A (50-100)”.

With `Cc1cc(COCC(F)(F)F)c(N2C(=O)CS/C2=N\C(=O)Nc2ccc(-c3ncn(-c4ccc(OC(F)(F)F)cc4)n3)cc2C)cc1C` [Compound J460], in assay [1], the CL rating result is given as “A (50-100)”. The BAW rating entry in assay [2] was “A (50-100)”.

Turning to `COC(C)c1ccc(C)cc1N1C(=O)CS/C1=N\C(=O)Nc1ccc(-c2cn(-c3ccc(C(F)(F)F)cn3)cn2)cc1F` (centres unmarked) [Compound J461, (Z)-1-(2-Fluoro-4-(1-(5-(trifluoromethyl)pyridin-2-yl)-1H-imidazol-4-yl)phenyl)-3-(3-(2-(1-methoxyethyl)-5-methylphenyl)-4-oxothiazolidin-2-ylidene)urea], the pest or weed control at 50 µg/cm2 in assay [1] and in assay [2] was 50 to 100% in each case.

With `COC(C)c1ccc(C)cc1N1C(=O)CS/C1=N\C(=O)Nc1ccc(-c2cn(-c3ccc(OC(F)(F)F)cc3)cn2)cc1` (centres unmarked) [Compound J463, (Z)-1-(3-(2-(1-Methoxyethyl)-5-methylphenyl)-4-oxothiazolidin-2-ylidene)-3-(4-(1-(4-(trifluoromethoxy)phenyl)-1H-imidazol-4-yl)phenyl)urea], the pest or weed control at 50 µg/cm2 in assay [1] and in assay [2] was 50 to 100% in each case.

As to `Cc1ccc(OCCCC(F)(F)F)c(N2C(=O)CS/C2=N\C(=O)Nc2ccc(-n3cnc(-c4ccc(OC(F)(F)F)cc4)n3)cc2C)c1` [Compound J465, (Z)-1-(3-(5-Methyl-2-(4,4,4-trifluorobutoxy)phenyl)-4-oxothiazolidin-2-ylidene)-3-(2-methyl-4-(3-(4-(trifluoromethoxy)phenyl)-1H-1,2,4-triazol-1-yl)phenyl)urea], the pest or weed control at 50 µg/cm2 in assay [1] and in assay [2] was 50 to 100% each time.

For `Cc1ccc(C(C)C)c(N2C(=O)CS/C2=N\C(=O)Nc2ccc(-n3cnc(-c4ccc(OC(F)(F)F)cc4)n3)cc2C)c1` [Compound J466, (Z)-1-(3-(2-Isopropyl-5-methylphenyl)-4-oxothiazolidin-2-ylidene)-3-(2-methyl-4-(3-(4-(trifluoromethoxy)phenyl)-1H-1,2,4-triazol-1-yl)phenyl)urea], the pest or weed control at 50 µg/cm2 in assay [1] and in assay [2] was 50 to 100% in each case.

The values are drawn from US20230077362A1 (CORTEVA AGRISCIENCE LLC, priority 2019, published 2023).
